Data on 1 compound can be found in US10889606B2, “Biflavone-iron complex, preparation method and application thereof” (NANJING FORESTRY UNIVERSITY, priority 2017, dated 2021).

Test [1] can be described thus: Pyrogallol auto-oxidation method, O2^−. free radical scavenging. Conditions: Tris-HCl pH 8.20, 25° C., 322 nm, read-out: IC50 to scavenge O2^−. free radical. On the procedure:
(1) Pyrogallol Auto-Oxidation Method
Determination of auto-oxidation rate V0 of pyrogallol: 2 mL Tris-HCl buffer (pH=8.20) was added to a 10 mL sample tube at 25° C., 100 μL, DMSO was added as a control, after adding 0.8 mL distilled water, 0.2 mL pyrogallol solution having a concentration of 2 mmol·L^−1 was added, the mixture was poured into a cuvette after mixing uniformly, the absorbance at 322 nm was measured with pure water as a blank, the A value was recorded every 10 s for a total of 4 min, linear regression was performed with t as the abscissa, and A as the ordinate, straight line slope thereof is V0, and the measurement was performed for three times to obtain an average value.
The free radical scavenging rate was calculated according to Formula 3. SR(%)=(1−v1/v0)×[…] (Formula 3)

A further test concerns herring sperm DNA (fDNA). Kind of test: Interaction with herring sperm DNA (fDNA) by UV-vis spectroscopy, fluorescence spectroscopy and viscosity method. Type of test: binding. Particulars: UV-vis, fluorescence (fDNA-EB system), viscosity. The source says:
UV-vis spectroscopy, fluorescence spectroscopy and viscosity method are used to study the interaction between the Ame/Ame-Fe complex and herring sperm DNA (fDNA) to further reveal the mechanism of antitumor activity, the obtained spectra are shown in FIGS. 7-11. […] Thereby, it can be speculated that the mechanism of antitumor activity of the Ame and its complex may be that Ame or the complex thereof enters the interior of the cell and intercalates with the DNA strand to cause apoptosis. Since the interaction of the complex with DNA is stronger than of the Ame, the antitumor activity thereof is also stronger than of the Ame.

Test [2] can be described thus: ABTS method, ABTS^+. free radical scavenging. Particulars: read-out: IC50 for scavenging ABTS^+. free radicals, 25° C., 5 min, 730 nm.
Experimental: The free radical scavenging abilities of the Ame and the Ame-Fe complex were studied by pyrogallol auto-oxidation method and ABTS method with the following steps:
Within a certain range, the scavenging rate is linear with the concentration. The curve of the scavenging rate and the concentration (c) is plotted in the present invention to obtain a corresponding linear equation, and the maximum half-inhibitory concentration (IC50 value) is calculated.

The term IC50 denotes the concentration that inhibits the measured activity by half. Turning to `O=c1cc(-c2ccc(O)c(-c3c(O)cc(O)c4c(=O)cc(-c5ccc(O)cc5)oc34)c2)oc2cc(O)cc(O)c12` [Ame, amentoflavone], the IC50 turned out to be 23.3 µM in test [1] and 20.7 µM in test [2]. Also, in the test with herring sperm DNA (fDNA), the “manner of interaction with fDNA” value was “in the intercalation manner”.
